In one assay the test system is VCaP cells. The assay can be described thus: Cellular growth inhibition assay for VCaP cells, CellTiter-Glo. The format is cell-based, human. The note with it: Homo sapiens, VCaP, 72 h, 72 hours treatment, CellTiter-Glo 2.0. As for the experimental part:
VCaP cells were purchased from American Type Cell Culture (ATCC Cat #CRL2876) and then seeded on poly-D-lysine coated, black clear-bottom 384-well plates at 5000/well in 25 μL Dulbecco's Modified Eagle Medium (DMEM) supplemented with 10% w/w Fetal bovine serum (FBS) and 1% w/w Pen-Strep. Pen-Strep is a commercially available mixture of penicillin G and streptomycin, which is used in mammalian cell culture media to prevent bacterial contamination. Dulbecco's Modified Eagle Medium (DMEM) supplemented with 10% w/w fetal bovine serum (FBS) and 1% w/w Pen-Strep is herein referred to as Treatment Medium. Following seeding of cells in the plates, the plates were spun at 300×g for 30 seconds, then equilibrated to room temperature for 30 minutes, and then deposited in a humidified tissue culture incubator maintained at 37° C. with 5% CO2.
At 24 hours after seeding of the cells, dilutions of test compound were prepared in DMSO and dissolved in Treatment Medium, to achieve a final DMSO concentration of 0.5% w/w, thereby providing the Test Compound Solution. A 25 μL aliquot of the Test Compound Solution was added to cells in the well plates. An equal volume of a solution containing DMSO and Treatment Medium was used as a negative control. Following treatment of cells with Test Compound Solution or said equal volume of a solution containing DMSO and Treatment Medium, the plates were spun at 300×g for 30 seconds, and then left in an incubator for 72 hours.
At the end of the treatment duration, cell viability was quantified with CellTiter-Glo 2.0 reagent (Promega Cat #G9243). For this purpose, plates were equilibrated to room temperature for 30 minutes, and then 25 μL of CellTiter-Glo 2.0 reagent was added to cells in the plate wells. Plates were then agitated on a shaker for two minutes at 500 rpm and subsequently incubated at room temperature for 10 minutes. Following incubation, the plates were spun at 3000×g for 30 seconds, then sealed with an optical adhesive cover, and luminescence readings were measured with an EnVision Plate Reader.
Data was normalized using zero luminescence for baseline. A four-parameter non-linear regression curve fit was applied to dose-response data in GraphPad Prism data analysis software to determine the half-maximal growth inhibitory concentration (GI50) for each test compound.

For assay [1], the system named is T-Rex 293 cell line SC3 cells lacking increased expression of androgen receptor protein. The assay can be described thus: Cellular growth inhibition, T-Rex 293 SC3 cells without doxycycline, CellTiter-Glo. The format is cell-based. The note with it: T-Rex 293 SC3 cells not exposed to doxycycline, CellTiter-Glo 2.0. As for the experimental part:
(§1) The following types of cells were prepared for this experiment: (i) a T-Rex 293 cell line having increased expression of androgen receptor protein due to exposure to doxycycline and (ii) a T-Rex 293 cell line lacking increased expression of androgen receptor protein. Ability of the test compounds to inhibit proliferation of the foregoing cell types was evaluated according to the procedures set forth below.
(§2) The doxycycline-inducible androgen receptor protein expressing cell line was established using the following protocol: T-Rex 293 cells were purchased from Invitrogen (Cat #R71007) and transfected using Lipofectamine 2000 with the wild-type androgen receptor protein sequence cloned into the pcDNA4/TO vector. Transfected cells were selected using 400 μg/mL Zeocin (Invitrogen Cat #R25001). Following selection, single clones were raised and maintained in Dulbecco's Modified Eagle Medium (DMEM) supplemented with 10% w/w Tetracycline-free fetal bovine serum (FBS) and 250 μg/mL Zeocin. Clones were analyzed for expression of androgen receptor protein in the presence and absence of 10 ng/mL doxycycline (Sigma Cat #D9891), and a single doxycycline-inducible clone (hereinafter “SC3”) was selected for use in downstream assays.
(§3) The SC3 cells were seeded on poly-D-lysine coated, black clear-bottom 384-well plates at 2500/well, in 25 μL Phenol Red Free Dulbecco's Modified Eagle Medium (DMEM) supplemented with 10% w/w charcoal-dextran treated fetal bovine serum (FBS) and 1% w/w pen-strep, with or without 10 ng/mL doxycycline. Pen-Strep is a commercially available mixture of penicillin G and streptomycin, which is used in mammalian cell culture media to prevent bacterial contamination. Phenol Red Free Dulbecco's Modified Eagle Medium (DMEM) supplemented with 10% w/w charcoal-dextran treated fetal bovine serum (FBS) and 1% w/w pen-strep, with or without 10 ng/mL doxycycline is herein referred to as Treatment Medium. Following seeding of cells in the plates, the plates were spun at 300×g for 30 seconds, then equilibrated to room temperature for 30 minutes, and then deposited in a humidified tissue culture incubator maintained at 37° C. with 5% CO2.
(§4) At 24 hours after seeding of the cells, dilutions of test compound were prepared in DMSO and dissolved in Treatment Medium, to achieve a final DMSO concentration of 0.5% w/w, thereby providing the Test Compound Solution. A 25 μL aliquot of the Test Compound Solution was added to cells in the well plates. An equal volume of a solution containing DMSO and Treatment Medium was used as a negative control. Following treatment of cells with Test Compound Solution or said equal volume of a solution containing DMSO and Treatment Medium, the plates were spun at 300×g for 30 seconds, and then left in an incubator for 72 hours. At the end of the treatment duration, cell viability was quantified with CellTiter-Glo 2.0 reagent (Promega Cat #G9243). For this purpose, plates were equilibrated to room temperature for 30 minutes, and then 25 μL of CellTiter-Glo 2.0 reagent was added to cells in the plate wells. Plates were then agitated on a shaker for two minutes at 500 rpm and subsequently incubated at room temperature for 10 minutes. Following incubation, the plates were spun at 3000×g for 30 seconds, then sealed with an optical adhesive cover, and luminescence readings were measured with an EnVision Plate Reader. Data was normalized using zero luminescence for baseline. A four-parameter non-linear regression curve fit was applied to dose-response data in GraphPad Prism data analysis software to determine the half-maximal growth inhibitory concentration (GI50) for each test compound.

Assay [2] relates to T-Rex 293 cell line SC3 cells having increased expression of androgen receptor protein due to exposure to doxycycline. In words: Cellular growth inhibition, T-Rex 293 SC3 cells with doxycycline (androgen receptor induced), CellTiter-Glo. The note with it: 72 h, T-Rex 293 SC3 cells with 10 ng/mL doxycycline (increased androgen receptor expression). The format is cell-based. As for the experimental part:
as §1, §2, §3, §4
On the technique in general: ATP-based viability assays read luminescence as a measure of living cells.

For another assay, the system named is T47D cells. The assay can be described thus: Cellular growth inhibition assay for T47D cells, CellTiter-Glo. The note with it: Homo sapiens, T47D, 72 h, 72 hours treatment, CellTiter-Glo 2.0 cell viability. The class given is cell-based, human. An outline of the steps: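 Cells are plated at 3000/well and allowed 24 h before treatment. Test compound in medium containing 0.5% DMSO is then added, with DMSO-only wells as negative control, and plates are incubated 72 h at 37 °C. ATP luminescence (CellTiter-Glo 2.0) is then fitted to four parameters to derive GI50.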

The term GI50 denotes the concentration that inhibits growth by half. High values mean lower sensitivity of the cells, low ones greater sensitivity of the cells.

Regarding `Cc1sc2c(c1C)C(c1ccc(CC3CC(C4CCCN(c5ncc(C(=O)N[C@H]6C(C)(C)[C@H](Oc7ccc(C#N)c(Cl)c7)C6(C)C)cn5)C4)C3)cc1)=N[C@@H](C)c1nnc(C)n1-2` (stereo partly shown) [Compound I-463], the GI50 in the assay with VCaP cells was below 0.5 µM; in assay [1] (72 h), above 3 µM; in assay [2], below 0.5 µM.

In the case of `Cc1sc2c(c1C)C(c1ccc(Cl)cc1)=N[C@@H](CC(=O)NCCCOCCCOC1CCN(c3ncc(C(=O)N[C@H]4C(C)(C)[C@H](Oc5ccc(C#N)c(Cl)c5)C4(C)C)cn3)CC1)c1nnc(C)n1-2` [Compound I-29], the GI50 with VCaP cells was below 0.5 µM; in assay [1] (72 h) it was 0.5 to 1.5 µM; in assay [2], below 0.5 µM.

With `Cc1sc2c(c1C)C(c1ccc(N3CCCN(CCCNc4ncc(C(=O)N[C@H]5C(C)(C)[C@H](Oc6ccc(C#N)c(Cl)c6)C5(C)C)cn4)CC3)cc1)=N[C@@H](Cc1ncco1)c1nnc(C)n1-2` [Compound I-666], the GI50 was below 0.5 µM in the assay with VCaP cells, 1.5 to 3 µM in assay [1] (72 h) and below 0.5 µM in assay [2].

On to `CCNC(=O)C[C@@H]1N=C(c2ccc(OCCCOC3CCN(c4ncc(C(=O)N[C@H]5C(C)(C)[C@H](Oc6ccc(C#N)c(Cl)c6)C5(C)C)cn4)CC3)cc2)c2c(sc(C)c2C)-n2c(C)nnc21` [Compound I-62], for which the GI50 (in the assay with VCaP cells; in assay [1] (72 h); in assay [2]) was below 0.5 µM in each case.

Regarding `Cc1sc2c(c1C)C(c1ccc(-c3cc(C4CCN(c5ncc(C(=O)N[C@H]6C(C)(C)[C@H](Oc7ccc(C#N)c(Cl)c7)C6(C)C)cn5)CC4)no3)cc1)=NC(Cc1ncco1)c1nnc(C)n1-2` (stereo partly shown) [Compound I-482], the GI50 (with VCaP cells; in assay [1] (72 h); in assay [2]) was below 0.5 µM in each case.

With `CCNC(=O)C[C@@H]1N=C(c2ccc(CCCCOC3CCN(c4ncc(C(=O)N[C@H]5C(C)(C)[C@H](Oc6ccc(C#N)c(Cl)c6)C5(C)C)cn4)CC3)cc2)c2c(sc(C)c2C)-n2c(C)nnc21` [Compound I-91], the 50% growth inhibitory concentration (GI50) in the assay on VCaP cells was 0.5 to 1.5 µM; in assay [1] (72 h) it was 0.5 to 1.5 µM; in assay [2] it was below 0.5 µM.

Regarding `CCNC(=O)C[C@@H]1N=C(c2ccc(OCCOCCOC3CCN(c4ncc(C(=O)N[C@H]5C(C)(C)[C@H](Oc6ccc(C#N)c(Cl)c6)C5(C)C)cn4)CC3)cc2F)c2c(sc(C)c2C)-n2c(C)nnc21` [Compound I-77], the GI50 was 0.5 to 1.5 µM with VCaP cells, 0.5 to 1.5 µM in assay [1] (72 h) and below 0.5 µM in assay [2].

As to `CCNC(=O)C[C@@H]1N=C(c2ccc(OCCCCOC3CCN(c4ncc(C(=O)NC5C(C)(C)C(Oc6ccc(C#N)c(Cl)c6)C5(C)C)cn4)CC3)cc2)c2c(sc(C)c2C)-n2c(C)nnc21` (stereo partly shown) [Compound I-64], the GI50 (with VCaP cells; in assay [1] (72 h); in assay [2]) was below 0.5 µM throughout.

Regarding `Cc1sc2c(c1C)C(c1ccc(N3CCC(C)(CNc4ncc(C(=O)N[C@H]5C(C)(C)[C@H](Oc6ccc(C#N)c(Cl)c6)C5(C)C)cn4)CC3)cc1)=NC(Cc1ncco1)c1nnc(C)n1-2` (stereo partly shown) [Compound I-667], the 50% growth inhibitory concentration (GI50) (in the assay with VCaP cells; in assay [1] (72 h); in assay [2]) was below 0.5 µM throughout.

Consider `Cc1sc2c(c1C)C(c1ccc(N3CCO[C@@H](CNc4ncc(C(=O)N[C@H]5C(C)(C)[C@H](Oc6ccc(C#N)c(Cl)c6)C5(C)C)cn4)C3)cc1)=NC(Cc1ncco1)c1nnc(C)n1-2` (stereo partly shown) [Compound I-669], for which the GI50 (with VCaP cells; in assay [1] (72 h); in assay [2]) was below 0.5 µM in each case.

As to `Cc1sc2c(c1C)C(c1ccc(-n3cc(C4CCN(c5ncc(C(=O)N[C@H]6C(C)(C)[C@H](Oc7ccc(C#N)c(Cl)c7)C6(C)C)cn5)CC4)nn3)cc1)=N[C@@H](Cc1ncco1)c1nnc(C)n1-2` [Compound I-481], the 50% growth inhibitory concentration (GI50) with VCaP cells was below 0.5 µM; in assay [1] (72 h), 0.5 to 1.5 µM; in assay [2] it was below 0.5 µM.

As to `Cc1sc2c(c1C)C(c1ccc(N3CCC4(CC3)CC(Nc3ncc(C(=O)N[C@H]5C(C)(C)[C@H](Oc6ccc(C#N)c(Cl)c6)C5(C)C)cn3)C4)cc1)=N[C@@H](Cc1ncco1)c1nnc(C)n1-2` [Compound I-668], the concentration for 50% growth inhibition (GI50) (in the assay with VCaP cells; in assay [1] (72 h); in assay [2]) was below 0.5 µM throughout.

As to `CCNC(=O)C[C@@H]1N=C(c2ccc(OCCOCCOC3CCN(c4ncc(C(=O)N[C@H]5C(C)(C)[C@H](Oc6ccc(C#N)c(Cl)c6)C5(C)C)cn4)CC3)c(F)c2F)c2c(sc(C)c2C)-n2c(C)nnc21` [Compound I-74], the GI50 was below 0.5 µM in the assay on VCaP cells, 0.5 to 1.5 µM in assay [1] (72 h) and below 0.5 µM in assay [2].

On to `CCNC(=O)C[C@@H]1N=C(c2ccc(OCCOCCOC3CCN(c4ncc(C(=O)N[C@H]5C(C)(C)[C@H](Oc6ccc(C#N)c(Cl)c6)C5(C)C)cn4)CC3)c(F)c2)c2c(sc(C)c2C)-n2c(C)nnc21` [Compound I-78], for which the GI50 in the assay on VCaP cells was 1.5 to 3 µM; in assay [1] (72 h), 1.5 to 3 µM; in assay [2], below 0.5 µM.

In the case of `Cc1sc2c(c1C)C(c1ccc(OC[C@@H]3CCCN(c4cnc(C(=O)N[C@H]5C(C)(C)[C@H](Oc6ccc(C#N)c(Cl)c6)C5(C)C)cn4)C3)cc1)=N[C@@H](C)c1nnc(C)n1-2` [Compound I-588], the GI50 with T47D cells is 0.5 to 1.5 µM; in assay [1] (72 h), above 3 µM; in assay [2], below 0.5 µM.

In the case of `Cc1sc2c(c1C)C(c1ccc(N3CC(N4CCN(c5ncc(C(=O)N[C@H]6C(C)(C)[C@H](Oc7ccc(C#N)c(Cl)c7)C6(C)C)cn5)CC4)C3)cc1)=NC(Cc1ncco1)c1nnc(C)n1-2` (stereo partly shown) [Compound I-628], the results for the GI50 in assay [1] (72 hours) and in assay [2] were above 3 µM and below 0.5 µM, respectively.

For the compound `Cc1sc2c(c1C)C(c1ccc(N[C@H]3CCN(c4ncc(C(=O)N[C@H]5C(C)(C)[C@H](Oc6ccc(C#N)c(Cl)c6)C5(C)C)cn4)C3)cc1)=NC(Cc1ncco1)c1nnc(C)n1-2` (stereo partly shown) [Compound I-622], the GI50 in assay [1] (72 h) and in assay [2] was below 0.5 µM each time.

(Values after patent US20260062422A1 (Halda Therapeutics OpCo, Inc., priority 2022, published 2026).)
